Values quoted from earlier work in patent EP1077694B1, “ARYL NITRONE THERAPEUTICS FOR THE TREATMENT OF INFLAMMATORY BOWEL DISEASE” (Renovis, Inc., priority 1998, dated 1999).

System: senescence-accelerated mice

Structure (SMILES): CC(C)(C)[N+]([O-])=Cc1ccccc1 [PBN, α-phenyl-t-butyl nitrone]
- increase the life span: one third
